# US20120083471A1, “Novel Compounds, Pharmaceutical Compositions Containing Same, Methods of Use for Same, and Methods for Preparing Same” (priority 2008, published 2012)
# Entries after “also recorded” stand apart in the source; their conditions may differ.
# Experiments:
# DIO mice [1] = test: 10 d FSG67 treatment of DIO mice with Q-NMR assessment of adiposity; assay type: in vivo, mouse
# Procedure: Q-NMR assessment of adiposity. Following 10 days of FSG67 treatment or vehicle by ip administration, the DIO mice were euthanized and carcasses were stored at −80° C. Carcasses were thawed for Q-NMR analysis. Measurement of fat, lean, and water mass was performed using an EchoMRI-100™ (Echo Medical Systems, Houston, Tex.) in the Molecular and Comparative Pathobiology Phenotyping Core.
# Since FSG67 increased fatty acid oxidation and reduced food intake in DIO mice, we next used Q-NMR analysis to measure lean, fat and water mass in FSG67 treated and control mice to determine the composition of the tissue loss with FSG67 treatment. In an additional chronic treatment experiment, 10 DIO mice were treated with FSG67 (5 mg/kg/d, ip) and 10 received vehicle for 10 days. The FSG67 treated mice lost 6.1±0.9 g (13.1±1.9%) while vehicle controls lost 1.1±0.4 g (2.3±0.8%) (p<0.0001. 2-way ANOVA). […] At the conclusion of the experiment, the FSG67 treated mice weighed 4.4 g less than the vehicle controls, which could be accounted for by the 4.0 g difference in fat mass. Thus, GPAT inhibition selectively reduces adiposity in DIO mice.
# DIO mice [2] = test: Chronic 20 d FSG67 treatment of DIO mice, reversibility of weight loss; assay type: in vivo, mouse
# From the text: DIO and lean mouse models. All animal experimentation was done in accordance with guidelines on animal care and use as established by the Johns Hopkins University School of Medicine IACUC. DIO C57BL6J male mice were obtained from Jackson Laboratory (Bar Harbor, ME) and fed a synthetic diet comprised of 60% calories from fat, 20% from carbohydrate, and 20% from protein (5.2 kcal/g) post-weaning through the experimental procedures (D12492i, Research Diets, Inc., New Brunswick, N.J.). For lean animal studies, twelve-week old C57BL6J male mice (Jackson Laboratory, Bar Harbor, Me.) were fed rodent chow comprised of 13% calories from fat, 58% from carbohydrate, and 29% from protein (4.1 kcal/g) (Prolab RMH 2500, PMI Nutrition International Inc., Brentwood, Mo.). Mice were maintained in 12 hr light-dark cycle at 25° C. for 1 week for acclimatization prior to treatment. In all studies, FSG67 (FASgen, Inc., Baltimore, Md.) was dissolved in RPMI 1640 (Invitrogen, Carlsbad, Calif.).
# For acute studies, 6 DIO or lean mice were treated with a single dose of FSG67 (20 mg/kg, i.p.) approximately 3 hrs past lights-on. Animal weights and food consumption were measured 18 h after treatment. Following euthanization, the hypothalmuses were harvested to measure orexigenic and anorexigenic neuropeptide gene expression. In the chronic studies, DIO mice, 4-10 animals per group, were treated daily with FSG67 (5 mg/kg, i.p.) or with RMPI vehicle for the days indicated. Body weight and food intake were measured daily. In one study, a cohort of mice was pair-fed with amounts consumed by the FSG67-treated animals and mice were monitored with indirect calorimetry (Oxymax Equal Flow System®, Columbus Instruments, Columbus, Ohio). Measurements of VO2 (ml/kg/hr) and VCO2 (ml/kg/hr) were performed and recorded every 15 min. The respiratory exchange ratio (RER) was calculated by Oxymax software, version 5.9, and is defined as ratio of VCO2 to VO2 33. After completion of the treatment course, animals were euthanized by CO2 inhalation 4 hrs following the final dose of FSG67. Tissues were harvested immediately for RNA extraction; serum was collected and analyzed for glucose, cholesterol, and triglyceride measurements (Bioanalytics, Gaithersburg, Md.). Fresh liver tissue was snap frozen in liquid N2, sectioned, and stained with hematoxylin and Oil Red O to visualize triglyceride droplets.
# The first chronic treatment experiment was designed to test if weight loss induced by FSG67 was reversible. Four DIO mice per group were treated with FSG67 or vehicle for 20 days. For the entire 32 d trial, weight and food consumption were recorded daily until the FSG67 treated animals regained their original weight. During FSG67 treatment (days 0-20), the mice lost 10.3±0.6% of their body mass while controls gained 4.0±0.5% (p<0.0001, 2-way ANOVA) (FIG. 12a). Average food consumption was reduced during FSG67 treatment (2.6±0.1 g/d, days 1-20) compared to vehicle controls (3.1±0.1 g) (p=0.0008, 2-way ANOVA) (FIG. 12b). Following cessation of treatment, food consumption increased in the FSG67 treatment group to an average of 3.5±0.1 g/d (days 21-32) representing a significant increase in food intake compared to vehicle controls 3.2±0.1 g/d (p=0.006, 2-way ANOVA). The FSG67 treated animals achieved their average pre-treatment weight 11 days following termination of treatment (FIG. 12a).
compound,measurement,setting,value
"CCCCCCCCCS(=O)(=O)Nc1ccccc1C(=O)O [Compound 15g, 2-(Nonylsulfonamido)benzoic acid]",reduction in fat mass compared to vehicle controls (Q-NMR),"DIO mice [1]; 5 mg/kg ip daily, 10 d",4.0 g
same,lean and water mass (Q-NMR),"DIO mice [1]; 5 mg/kg ip daily, 10 d, listed as FSG67, 5 mg/kg",no significant change; also recorded: unaffected
same,final weight difference to vehicle controls,DIO mice [1]; conclusion of 10 d experiment,4.4 g
same,time to pre-treatment weight following termination of treatment,DIO mice [2],11 days
same,body mass lost during treatment,"DIO mice [2]; 5 mg/kg ip daily, 20 d",10.3±0.6%
same,food consumption during treatment,"DIO mice [2]; 5 mg/kg ip daily, days 1-20",2.6 ± 0.1 g/day
same,food consumption following cessation of treatment,DIO mice [2]; days 21-32,3.5 ± 0.1 g/day
same,day of return to original weight,DIO mice [2]; treatment terminated at day 20,32 days
